Measured values as given in PubChem BioAssay (NCI).
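Assay format: 96-well plates, 48-hour exposure. TGI: concentration producing complete growth inhibition.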

How the values were obtained:
Experiment in all cases: DTP human tumour cell line panel, 48 h
SK-MEL-5 melanoma = tested on: SK-MEL-5 melanoma
RXF 393 renal = tested on: RXF 393 renal
SF-539 CNS = tested on: SF-539 CNS
UACC-62 melanoma = tested on: UACC-62 melanoma
MDA-N = tested on: MDA-N
NCI-H226 lung = tested on: NCI-H226 lung
CCRF-CEM leukemia = tested on: CCRF-CEM leukemia
SNB-19 CNS = tested on: SNB-19 CNS
HL-60(TB) leukemia = tested on: HL-60(TB) leukemia
TK-10 renal = tested on: TK-10 renal
MDA-MB-435 = tested on: MDA-MB-435
ACHN renal = tested on: ACHN renal
KM12 colon = tested on: KM12 colon
CAKI-1 renal = tested on: CAKI-1 renal
MALME-3M melanoma = tested on: MALME-3M melanoma
SK-OV-3 ovarian = tested on: SK-OV-3 ovarian
MCF7 breast = tested on: MCF7 breast
HS 578T breast = tested on: HS 578T breast
MDA-MB-231 breast = tested on: MDA-MB-231 breast
OVCAR-4 ovarian = tested on: OVCAR-4 ovarian
A549 NSCLC = tested on: A549 NSCLC
SW-620 colon = tested on: SW-620 colon
SK-MEL-28 melanoma = tested on: SK-MEL-28 melanoma
LOX IMVI melanoma = tested on: LOX IMVI melanoma
786-0 renal = tested on: 786-0 renal
HOP-62 NSCLC = tested on: HOP-62 NSCLC
HCC-2998 colon = tested on: HCC-2998 colon
HOP-92 NSCLC = tested on: HOP-92 NSCLC
UO-31 renal = tested on: UO-31 renal
BT-549 breast = tested on: BT-549 breast
RPMI-8226 leukemia = tested on: RPMI-8226 leukemia
DU-145 prostate = tested on: DU-145 prostate
SN12C renal = tested on: SN12C renal
PC-3 prostate = tested on: PC-3 prostate
EKVX NSCLC = tested on: EKVX NSCLC
NCI-H460 lung = tested on: NCI-H460 lung
IGROV1 ovarian = tested on: IGROV1 ovarian
SF-268 CNS = tested on: SF-268 CNS
OVCAR-5 ovarian = tested on: OVCAR-5 ovarian
SF-295 CNS = tested on: SF-295 CNS
K-562 leukemia = tested on: K-562 leukemia
SK-MEL-2 melanoma = tested on: SK-MEL-2 melanoma
U251 CNS = tested on: U251 CNS
SR leukemia = tested on: SR leukemia
COLO 205 colon = tested on: COLO 205 colon
T-47D breast = tested on: T-47D breast
OVCAR-3 ovarian = tested on: OVCAR-3 ovarian
HCT-15 colon = tested on: HCT-15 colon
HCT-116 colon = tested on: HCT-116 colon
UACC-257 melanoma = tested on: UACC-257 melanoma
M14 melanoma = tested on: M14 melanoma
A498 renal = tested on: A498 renal
SNB-75 CNS = tested on: SNB-75 CNS
NCI/ADR-RES ovarian = tested on: NCI/ADR-RES ovarian
MOLT-4 leukemia = tested on: MOLT-4 leukemia
OVCAR-8 ovarian = tested on: OVCAR-8 ovarian
NCI-H23 lung = tested on: NCI-H23 lung
NCI-H522 lung = tested on: NCI-H522 lung
HT29 colon = tested on: HT29 colon

SMILES: NCCc1c[nH]c2ccc(OC(=O)C(=O)O)cc12
- TGI (SK-MEL-5 melanoma): > 100 µM
- TGI (RXF 393 renal): > 100 µM
- TGI (SF-539 CNS): > 100 µM
- TGI (UACC-62 melanoma): > 100 µM
- TGI (MDA-N): > 100 µM
- TGI (NCI-H226 lung): > 100 µM
- TGI (CCRF-CEM leukemia): > 100 µM
- TGI (SNB-19 CNS): > 100 µM
- TGI (HL-60(TB) leukemia): 23.2 µM
- TGI (TK-10 renal): > 100 µM
- TGI (MDA-MB-435): > 100 µM
- TGI (ACHN renal): > 100 µM
- TGI (KM12 colon): > 100 µM
- TGI (CAKI-1 renal): > 100 µM
- TGI (MALME-3M melanoma): > 100 µM
- TGI (SK-OV-3 ovarian): > 100 µM
- TGI (MCF7 breast): > 100 µM
- TGI (HS 578T breast): > 100 µM
- TGI (MDA-MB-231 breast): > 100 µM
- TGI (OVCAR-4 ovarian): > 100 µM
- TGI (A549 NSCLC): > 100 µM
- TGI (SW-620 colon): > 100 µM
- TGI (SK-MEL-28 melanoma): > 100 µM
- TGI (LOX IMVI melanoma): > 100 µM
- TGI (786-0 renal): > 100 µM
- TGI (HOP-62 NSCLC): > 100 µM
- TGI (HCC-2998 colon): > 100 µM
- TGI (HOP-92 NSCLC): > 100 µM
- TGI (UO-31 renal): > 100 µM
- TGI (BT-549 breast): > 100 µM
- TGI (RPMI-8226 leukemia): > 100 µM
- TGI (DU-145 prostate): > 100 µM
- TGI (SN12C renal): > 100 µM
- TGI (PC-3 prostate): > 100 µM
- TGI (EKVX NSCLC): > 100 µM
- TGI (NCI-H460 lung): > 100 µM
- TGI (IGROV1 ovarian): > 100 µM
- TGI (SF-268 CNS): > 100 µM
- TGI (OVCAR-5 ovarian): > 100 µM
- TGI (SF-295 CNS): > 100 µM
- TGI (K-562 leukemia): > 100 µM
- TGI (SK-MEL-2 melanoma): > 100 µM
- TGI (U251 CNS): > 100 µM
- TGI (SR leukemia): > 100 µM
- TGI (COLO 205 colon): > 100 µM
- TGI (T-47D breast): > 100 µM
- TGI (OVCAR-3 ovarian): > 100 µM
- TGI (HCT-15 colon): > 100 µM
- TGI (HCT-116 colon): > 100 µM
- TGI (UACC-257 melanoma): > 100 µM
- TGI (M14 melanoma): > 100 µM
- TGI (A498 renal): > 100 µM
- TGI (SNB-75 CNS): > 100 µM
- TGI (NCI/ADR-RES ovarian): > 100 µM
- TGI (MOLT-4 leukemia): > 100 µM
- TGI (OVCAR-8 ovarian): > 100 µM
- TGI (NCI-H23 lung): > 100 µM
- TGI (NCI-H522 lung): > 100 µM
- TGI (HT29 colon): > 100 µM

SMILES: CCOC(=O)NC(Nc1ccc(OC(F)(F)F)cc1)(C(F)(F)F)C(F)(F)F
- TGI (SK-MEL-5 melanoma): > 100 µM
- TGI (RXF 393 renal): > 100 µM
- TGI (SF-539 CNS): > 100 µM
- TGI (UACC-62 melanoma): > 100 µM
- TGI (MDA-N): > 100 µM
- TGI (NCI-H226 lung): > 100 µM
- TGI (CCRF-CEM leukemia): > 100 µM
- TGI (SNB-19 CNS): > 100 µM
- TGI (HL-60(TB) leukemia): > 100 µM
- TGI (TK-10 renal): > 100 µM
- TGI (MDA-MB-435): > 100 µM
- TGI (ACHN renal): > 100 µM
- TGI (KM12 colon): > 100 µM
- TGI (CAKI-1 renal): > 100 µM
- TGI (MALME-3M melanoma): > 100 µM
- TGI (SK-OV-3 ovarian): > 100 µM
- TGI (MCF7 breast): > 100 µM
- TGI (HS 578T breast): > 100 µM
- TGI (MDA-MB-231 breast): > 100 µM
- TGI (A549 NSCLC): > 100 µM
- TGI (SW-620 colon): > 100 µM
- TGI (SK-MEL-28 melanoma): > 100 µM
- TGI (LOX IMVI melanoma): > 100 µM
- TGI (786-0 renal): > 100 µM
- TGI (HOP-62 NSCLC): > 100 µM
- TGI (HCC-2998 colon): > 100 µM
- TGI (HOP-92 NSCLC): > 100 µM
- TGI (UO-31 renal): > 100 µM
- TGI (BT-549 breast): > 100 µM
- TGI (RPMI-8226 leukemia): > 100 µM
- TGI (DU-145 prostate): > 100 µM
- TGI (SN12C renal): > 100 µM
- TGI (PC-3 prostate): > 100 µM
- TGI (EKVX NSCLC): > 100 µM
- TGI (NCI-H460 lung): > 100 µM
- TGI (IGROV1 ovarian): > 100 µM
- TGI (SF-268 CNS): > 100 µM
- TGI (OVCAR-5 ovarian): > 100 µM
- TGI (SF-295 CNS): > 100 µM
- TGI (K-562 leukemia): > 100 µM
- TGI (SK-MEL-2 melanoma): > 100 µM
- TGI (U251 CNS): > 100 µM
- TGI (SR leukemia): > 100 µM
- TGI (COLO 205 colon): > 100 µM
- TGI (T-47D breast): > 100 µM
- TGI (OVCAR-3 ovarian): > 100 µM
- TGI (HCT-15 colon): > 100 µM
- TGI (HCT-116 colon): > 100 µM
- TGI (UACC-257 melanoma): > 100 µM
- TGI (M14 melanoma): > 100 µM
- TGI (A498 renal): > 100 µM
- TGI (SNB-75 CNS): > 100 µM
- TGI (NCI/ADR-RES ovarian): > 100 µM
- TGI (MOLT-4 leukemia): > 100 µM
- TGI (OVCAR-8 ovarian): > 100 µM
- TGI (NCI-H23 lung): > 100 µM
- TGI (NCI-H522 lung): > 100 µM
- TGI (HT29 colon): > 100 µM
